From the NIST ThermoML archive (doi:10.1021/je5000692)

Assay: relative permittivity at various frequencies (dimensionless)
Conditions: Liquid, Frequency=0.001 MHz, Coaxial cylinder capacitor

CCCCCCCC [octane]
Conditions | relative permittivity
303.07 K, 5010 kPa | 1.94148
303.07 K, 10050 kPa | 1.94875
303.07 K, 20060 kPa | 1.96184
303.07 K, 25030 kPa | 1.9682
333.25 K, 5040 kPa | 1.90899
333.25 K, 6780 kPa | 1.91211
333.25 K, 10020 kPa | 1.91777
333.25 K, 20050 kPa | 1.93287
333.25 K, 25050 kPa | 1.93989
373.16 K, 5040 kPa | 1.85755
373.16 K, 10030 kPa | 1.8684
373.16 K, 20030 kPa | 1.88737
373.16 K, 25060 kPa | 1.89562
398.17 K, 5010 kPa | 1.8243
398.17 K, 10010 kPa | 1.8374
398.17 K, 20050 kPa | 1.85955
398.17 K, 25040 kPa | 1.87023
